Assay: FATZO mouse NASH model on western diet plus fructose (Example 8): body and liver weight, liver histology, NAS, fibrosis
Format: in vivo, FATZO mice
Description: NASH was induced in 60 male FATZO mice by a western diet (Research Diet #D12079B; fat 40% kcal, protein 17% kcal, carbohydrate 43% kcal) supplemented with 5% fructose in the drinking water (WDF) during a 16 week induction phase. Diets and water were available ad libitum. Littermate control male FATZO mice fed with a control diet (n=6, Purina #5008; fat 17% kcal, protein 27% kcal, carbohydrate 56% kcal) and sterile water were set up for control purpose. Mice were housed in plastic cages with microisolator. Sterilized bedding was replaced once a week. Mice were housed three per cage and maintained on a twelve hour light cycle throughout study duration. Room temperature was monitored daily and maintained at 22-25° C. Body weight was recorded every week during the induction phase.
Following 16 weeks diet induction, 6 mice remained on control diet (group 1, Control) while 60 induced mice were randomized on body weight and plasma glucose (fed) for assignment to the following treatments. FATZO mice were administered with test articles starting at 16 weeks post western diet NASH induction for 4 weeks. Test articles were administered by oral gavage. Animals were euthanized at 20 weeks post western diet NASH induction, and tissues were harvested for analysis.
[…], […]+G, LRQNAC, and OCA (Advanced ChemBlocks, Inc.), incipient, and water for irrigation were provided by Axcella Health, Inc. 0.5% Methylcellulosewas provided by CrownBio, Inc. Dosing solutions were prepared according to Appendix 1. […] Obeticholic acid (OCA) was suspended in 0.5% methylcellulose in water for irrigation. All test articles were stored refrigerated. TA compounds were provided in frozen powder form by the sponsor. Dosing was continued for 4 weeks.
[…], […]+G, LRQNAC, OCA and Vehicle were administered by oral gavage at a volume of 10 mL/kg throughout the study. Dosages were calculated by daily body weight. […], […]+G, LRQNAC, and Vehicle were administered twice per day (BID), while OCA was administered once a day (QD) in the morning. Mice receiving OCA once per day (QD), and one vehicle QD. Doses were administered by oral gavage at 0700 and 1800 by oral gavage for 4 weeks.
The viability, clinical signs and behavior were monitored daily. Body weight was recorded daily during the dosing period. Blood samples were collected weekly in the AM (0700) via tail clip for glucose measurement (StatStrip glucometer).
Animals were anesthetized with CO2 inhalation and exsanguinated via cardiac puncture for euthanasia. Terminal blood samples (K2EDTA) were obtained by cardiac puncture in anesthetized animals at termination. Samples were provided frozen to Axcella Health. Organ weights (total liver, gonadal fat pads) were recorded. Pancreas, and small intestine and gonadal fat pads were fixed in 10% Buffered Formalin and prepared as directed in protocol. A section of small intestine, gonadal fat pad and liver were also snap frozen in liquid nitrogen and shipped to the sponsor.
The liver tissues were fixed in Bouin's solution at 4° C. for 24 hours followed by baths of standard concentrations of alcohol then xylene to prepare the tissues for paraffin embedding. After being embedded in paraffin and cooled, five-micron sections were cut and stained for routine H&E and Picric Sirius Red. A section of both right and left lobes of the livers were frozen in OCT for analysis of lipid content with Oil-Red-) staining. The Aperio whole slide digital imaging system (Scan Scope CS, Vista, Calif.) was used for imaging. All slides were imaged at 20×. The scan time ranged from 1.5 minutes to a maximum time of 2.25 minutes. The whole images were housed and stored in their Spectrum software system and images were shot from the whole slides.
The livers were evaluated using the NASH liver criteria for scoring. In this mouse study, one cross section of liver for each case was analyzed with the NASH score system. […]

[1] = FATZO mice on WDF, 4 weeks, LIVRQNAC+G 3885 mg/kg, LRQNAC 2469 mg/kg BID, OCA 30 mg/kg/day QD
[2] = score 0-3, WDF fed FATZO mice, oral gavage 4 weeks, LIVRQNAC+G and LRQNAC leucine-matched BID, OCA QD

SMILES: CC[C@H]1[C@@H](O)[C@@H]2[C@H](CC[C@]3(C)[C@@H]([C@H](C)CCC(=O)O)CC[C@@H]23)[C@@]2(C)CC[C@@H](O)C[C@@H]12 [OCA, 6α-ethyl-chenodeoxycholic acid]
- NAFLD activity score (NAS) (FATZO mice on WDF, 4 weeks, vs vehicle, LIVRQNAC 1500 or 3000 mg/kg, LIVRQNAC+G 3885 mg/kg, LRQNAC 2469 mg/kg, OCA 30 mg/kg/day): no significant effect
- Body weight change compared to baseline [1]: −3.9±1.5%
- Liver weight (% body weight) [1]: 6.81±0.2 % body weight
- Liver Pathology NAS (WDF fed FATZO mice, oral gavage 4 weeks, LIVRQNAC+G and LRQNAC leucine-matched BID, OCA QD): 3.72 ± 0.147
- Liver Pathology Ballooning (score 0-2, WDF fed FATZO mice, oral gavage 4 weeks, LIVRQNAC+G and LRQNAC leucine-matched BID, OCA QD): 0.94 ± 0.056
- Liver Pathology Inflammation [2]: 1.0 ± 0.0
- Liver Pathology Steatosis [2]: 1.78 ± 0.147

Reference: patent US20210260010A1, “COMPOSITIONS AND METHODS FOR THE REDUCTION OR TREATMENT OF INFLAMMATION” (AXCELLA HEALTH INC., priority 2018, published 2021)
